How the values were obtained:
IKZF2 = IKZF2 (Homo sapiens (Human), UniProt Q96SW2+Q9UKS7); assay: In vitro IKZF2 HiBit Assay (HEK293T Flp-in-HiBiT cells); assay type: cell-based; conditions: HEK293T Flp-in-HiBiT cells, 6 hrs incubation; for DC50: read-out: IKZF2 HiBit DC50; for Dmax: HEK-293T, read-out: IKZF2 HiBit Dmax (%)
How it was run: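 Remaining tagged Helios was read as lytic HiBiT/LgBiT luminescence normalized to DMSO, yielding binned DC50 and Dmax values. Treatment ran 6 h, with compounds at 11 three-fold doses diluted from 1 mM and 0.1% final DMSO. The cells were HEK293T Flp-in with CRISPR knock-in of HiBiT at the IKZF2 N-terminus.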

IKZF1 = IKZF1 (Homo sapiens (Human), UniProt Q13422+Q96SW2); assay: In vitro IKZF1 HiBit Assay (HEK293T Flp-in-HiBiT-IKZF1 stable cell line); assay type: cell-based; conditions: HEK293T Flp-in-HiBiT-IKZF1 stable cell line, 6 hrs incubation; for DC50: read-out: IKZF1 HiBit DC50; for Dmax: HEK-293T, read-out: IKZF1 HiBit Dmax (%)
IKZF1, sequence (Q13422 whole entry): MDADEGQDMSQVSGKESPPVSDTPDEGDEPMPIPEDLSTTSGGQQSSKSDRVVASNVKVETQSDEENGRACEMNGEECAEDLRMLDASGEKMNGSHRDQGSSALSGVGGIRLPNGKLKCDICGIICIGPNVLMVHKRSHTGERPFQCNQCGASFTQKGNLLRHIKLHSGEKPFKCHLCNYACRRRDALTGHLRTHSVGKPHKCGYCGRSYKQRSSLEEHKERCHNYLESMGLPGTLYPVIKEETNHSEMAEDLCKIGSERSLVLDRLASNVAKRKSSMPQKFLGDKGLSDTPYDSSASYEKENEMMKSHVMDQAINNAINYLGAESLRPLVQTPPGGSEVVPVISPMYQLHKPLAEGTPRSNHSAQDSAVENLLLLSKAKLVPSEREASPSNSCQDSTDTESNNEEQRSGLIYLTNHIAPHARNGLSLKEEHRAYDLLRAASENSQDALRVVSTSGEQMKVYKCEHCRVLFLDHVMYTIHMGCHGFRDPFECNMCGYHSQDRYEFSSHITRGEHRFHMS
IKZF1, sequence (Q96SW2 whole entry): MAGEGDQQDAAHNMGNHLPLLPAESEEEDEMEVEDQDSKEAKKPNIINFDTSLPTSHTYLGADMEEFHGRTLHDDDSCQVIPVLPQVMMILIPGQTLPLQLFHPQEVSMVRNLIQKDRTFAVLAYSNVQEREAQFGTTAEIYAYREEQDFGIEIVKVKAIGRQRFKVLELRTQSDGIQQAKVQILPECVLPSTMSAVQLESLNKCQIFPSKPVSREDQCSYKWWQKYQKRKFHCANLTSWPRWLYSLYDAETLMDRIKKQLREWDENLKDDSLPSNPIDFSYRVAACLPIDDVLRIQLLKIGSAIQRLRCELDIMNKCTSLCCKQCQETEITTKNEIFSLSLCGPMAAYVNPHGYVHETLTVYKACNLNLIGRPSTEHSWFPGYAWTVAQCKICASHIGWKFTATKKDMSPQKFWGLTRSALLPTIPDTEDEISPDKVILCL
IKZF1, sequence (Q16531 2-1140 partner): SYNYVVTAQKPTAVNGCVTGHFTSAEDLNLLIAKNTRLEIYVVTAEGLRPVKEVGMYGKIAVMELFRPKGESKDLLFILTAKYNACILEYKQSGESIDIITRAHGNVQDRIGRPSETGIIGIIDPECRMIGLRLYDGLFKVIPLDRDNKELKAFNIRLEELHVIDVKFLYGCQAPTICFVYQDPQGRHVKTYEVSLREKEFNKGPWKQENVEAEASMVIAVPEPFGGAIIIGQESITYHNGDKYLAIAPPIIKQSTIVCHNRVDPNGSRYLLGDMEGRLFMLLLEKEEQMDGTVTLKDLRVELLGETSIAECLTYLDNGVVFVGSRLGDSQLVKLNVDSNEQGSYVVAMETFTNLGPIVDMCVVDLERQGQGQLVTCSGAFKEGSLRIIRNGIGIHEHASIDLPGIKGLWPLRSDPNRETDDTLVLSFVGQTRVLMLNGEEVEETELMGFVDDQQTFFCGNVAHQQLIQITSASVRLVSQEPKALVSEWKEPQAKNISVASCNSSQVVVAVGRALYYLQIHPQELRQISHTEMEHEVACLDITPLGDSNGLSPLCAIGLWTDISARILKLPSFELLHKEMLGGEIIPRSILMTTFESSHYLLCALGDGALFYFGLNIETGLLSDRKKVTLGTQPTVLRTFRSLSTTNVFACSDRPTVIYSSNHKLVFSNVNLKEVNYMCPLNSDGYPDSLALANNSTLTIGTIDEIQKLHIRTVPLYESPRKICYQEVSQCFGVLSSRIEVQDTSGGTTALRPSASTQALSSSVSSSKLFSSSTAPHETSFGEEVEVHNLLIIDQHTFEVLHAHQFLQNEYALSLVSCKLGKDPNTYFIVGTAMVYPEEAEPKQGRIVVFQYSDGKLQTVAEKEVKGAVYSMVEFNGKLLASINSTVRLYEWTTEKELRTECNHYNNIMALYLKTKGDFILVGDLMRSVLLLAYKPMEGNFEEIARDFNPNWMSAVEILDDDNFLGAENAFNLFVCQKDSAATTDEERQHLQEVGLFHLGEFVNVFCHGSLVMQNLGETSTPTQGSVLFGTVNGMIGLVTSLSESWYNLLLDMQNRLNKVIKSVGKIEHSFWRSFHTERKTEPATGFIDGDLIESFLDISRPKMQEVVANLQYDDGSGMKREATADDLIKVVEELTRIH
How it was run: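 Degradation was measured as loss of luminescence from the HiBiT-IKZF1 tag after 6 h compound treatment, with 0.1% final DMSO, in stable HEK293T Flp-in cells. Values were normalized to DMSO, giving the 50% degradation concentration and the maximal degradation range.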

CRBN/DDB1 = CRBN/DDB1 (Homo sapiens (Human), UniProt Q96SW2); assay: IC50 measurements for binding to CRBN/DDB1 (HTRF); conditions: His tagged CRBN+DDB, Cy5-labeled Thalidomide probe, one hour
CRBN/DDB1, sequence (Q96SW2 whole entry, species assumed): as the sequence (Q96SW2 whole entry) above
CRBN/DDB1, sequence (Q16531 whole entry partner, species assumed): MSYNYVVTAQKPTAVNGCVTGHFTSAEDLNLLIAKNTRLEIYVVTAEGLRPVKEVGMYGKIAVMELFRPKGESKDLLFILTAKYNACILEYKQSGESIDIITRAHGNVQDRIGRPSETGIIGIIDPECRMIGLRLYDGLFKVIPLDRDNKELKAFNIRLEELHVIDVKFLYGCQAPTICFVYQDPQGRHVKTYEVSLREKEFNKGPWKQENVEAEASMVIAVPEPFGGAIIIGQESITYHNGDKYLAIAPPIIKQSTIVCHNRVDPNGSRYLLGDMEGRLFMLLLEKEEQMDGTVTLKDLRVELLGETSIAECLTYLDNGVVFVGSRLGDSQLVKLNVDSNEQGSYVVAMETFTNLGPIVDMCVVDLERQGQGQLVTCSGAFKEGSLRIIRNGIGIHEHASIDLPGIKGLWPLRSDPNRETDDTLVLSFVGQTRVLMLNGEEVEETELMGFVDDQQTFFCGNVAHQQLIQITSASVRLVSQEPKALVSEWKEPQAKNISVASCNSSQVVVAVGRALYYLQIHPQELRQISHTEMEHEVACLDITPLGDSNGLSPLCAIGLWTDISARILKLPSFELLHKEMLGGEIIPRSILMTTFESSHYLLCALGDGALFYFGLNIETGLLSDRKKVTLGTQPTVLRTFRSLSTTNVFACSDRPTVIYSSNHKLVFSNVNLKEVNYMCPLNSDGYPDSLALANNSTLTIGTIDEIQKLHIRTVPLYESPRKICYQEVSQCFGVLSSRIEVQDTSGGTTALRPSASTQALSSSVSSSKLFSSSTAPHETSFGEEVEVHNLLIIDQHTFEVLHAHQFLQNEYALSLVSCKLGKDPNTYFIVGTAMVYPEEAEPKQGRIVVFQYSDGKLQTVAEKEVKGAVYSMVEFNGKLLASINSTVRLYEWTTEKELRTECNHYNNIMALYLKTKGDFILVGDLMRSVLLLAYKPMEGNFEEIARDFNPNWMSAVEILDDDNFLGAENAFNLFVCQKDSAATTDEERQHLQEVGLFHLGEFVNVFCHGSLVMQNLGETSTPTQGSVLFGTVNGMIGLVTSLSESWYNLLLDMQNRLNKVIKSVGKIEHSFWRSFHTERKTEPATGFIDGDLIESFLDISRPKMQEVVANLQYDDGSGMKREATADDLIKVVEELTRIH
Experimental: In vitro Assay: IC50 Measurements for binding to CRBN/DDB1 (Table E1)
The binding potency was determined using HTRF assay technology (Perkin Elmer). Compounds were serially diluted in DMSO and 0.2 μL volume was transferred to white 384-well plate. The reaction was conducted in total volume of 20 μL with addition of 2 nM His tagged CRBN+DDB−DLS7+CXU4 (Wuxi, catalogue #RP210521GA) to compounds followed by addition of 60 nM Fluorescent probe Cy5-labeled Thalidomide (Tenova Pharma, catalogue #T52461), and 0.4 nM of MAb Anti-6HIS Tb cryptate Gold (Cisbio, catalogue #61HI2TLA in the assay buffer (50 mM HEPES pH 7.5, 1 mM TCEP, 0.01% Brij-35, 50 mM NaCl, and 0.1% BSA). After one hour incubation at room temperature, the HTRF signals were read on Envision reader (Perkin Elemer). Data was analyzed using XLfit using four parameters dose response curve to determine IC50s. A: IC50<0.1 μM; B: 0.1 μM<IC50<[…]; C: 0.5 μM<IC50<1 μM; D: 1 μM<IC50<5 μM; E: 5 μM<IC50<10 μM

IKZF2, sequence (Q9UKS7 whole entry): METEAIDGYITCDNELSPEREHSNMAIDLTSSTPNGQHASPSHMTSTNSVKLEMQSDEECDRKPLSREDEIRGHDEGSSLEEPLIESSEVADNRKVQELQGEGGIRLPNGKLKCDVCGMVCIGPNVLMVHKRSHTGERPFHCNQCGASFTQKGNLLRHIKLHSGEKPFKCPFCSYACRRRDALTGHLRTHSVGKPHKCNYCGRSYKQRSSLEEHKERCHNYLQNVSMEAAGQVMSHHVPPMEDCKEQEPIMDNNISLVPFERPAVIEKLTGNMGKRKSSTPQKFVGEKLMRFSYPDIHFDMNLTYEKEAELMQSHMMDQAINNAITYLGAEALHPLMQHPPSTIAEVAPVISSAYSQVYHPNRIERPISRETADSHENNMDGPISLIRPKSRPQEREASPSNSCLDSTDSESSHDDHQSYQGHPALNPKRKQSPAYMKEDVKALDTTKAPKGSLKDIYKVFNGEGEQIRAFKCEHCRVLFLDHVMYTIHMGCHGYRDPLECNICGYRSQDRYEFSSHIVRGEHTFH
IKZF2, sequence (Q96SW2 whole entry): as the sequence (Q96SW2 whole entry) above
IKZF2, sequence (Q16531 2-1140 partner): as the sequence (Q16531 2-1140 partner) above

SMILES	DC50 (IKZF2) [nM]	Dmax (IKZF2) [%]	DC50 (IKZF1) [nM]	Dmax (IKZF1) [%]	IC50 (CRBN/DDB1) [nM]
Cn1ccc2c(CN3CCCC3)cc(-c3cc4c(cc3Cl)C(=O)N(C3CCC(=O)NC3=O)C4)nc21 (stereo not shown) [Example 83, 3-(6-chloro-5-(1-methyl-4-(pyrrolidin-1-ylmethyl)-1H-pyrrolo[2,3-b]pyridin-6-yl)-1-oxoisoindolin-2-yl) piperidine-2,6-dione]	1 to 10	> 80	> 10000	< 20	1000 to 5000
O=C1CCC(N2Cc3cc(-c4cc(CN5CCC5)c5cc[nH]c5n4)ccc3C2=O)C(=O)N1 (stereo not shown) [Example 84, 3-(5-(4-(azetidin-1-ylmethyl)-1H-pyrrolo[2,3-b]pyridin-6-yl)-1-oxoisoindolin-2-yl) piperidine-2,6-dione]	1 to 10	> 80	10 to 100	20 to 40	< 100
COC1CN(Cc2cc(-c3ccc4c(c3)CN(C3CCC(=O)NC3=O)C4=O)nc3c2ccn3C)C1 (stereo not shown) [Example 85, 3-(5-(4-((3-methoxyazetidin-1-yl)methyl)-1-methyl-1H-pyrrolo[2,3-b]pyridin-6-yl)-1-oxoisoindolin-2-yl) piperidine-2,6-dione]	1 to 10	> 80	1 to 10	20 to 40	100 to 500
CC(c1cc(-c2ccc3c(c2)CN(C2CCC(=O)NC2=O)C3=O)nc2c1ccn2C)N1CCCC1 (stereo not shown) [Example 87, 3-(5-(1-methyl-4-(1-(pyrrolidin-1-yl)ethyl)-1H-pyrrolo[2,3-b]pyridin-6-yl)-1-oxoisoindolin-2-yl) piperidine-2,6-dione]	100 to 1000	< 20	> 10000	< 20	100 to 500
Cn1ccc2c(Cn3ccnc3)cc(-c3ccc4c(c3)CN(C3CCC(=O)NC3=O)C4=O)nc21 (stereo not shown) [Example 88, 3-(5-(4-((1H-imidazol-1-yl)methyl)-1-methyl-1H-pyrrolo[2,3-b]pyridin-6-yl)-1-oxoisoindolin-2-yl) piperidine-2,6-dione]	10 to 100	> 80	> 10000	< 20	1000 to 5000
Cn1ccc2c(C(=O)N3CCCC3)cc(-c3ccc4c(c3)CN(C3CCC(=O)NC3=O)C4=O)nc21 (stereo not shown) [Example 89, 3-(5-(1-methyl-4-(pyrrolidine-1-carbonyl)-1H-pyrrolo[2,3-b]pyridin-6-yl)-1-oxoisoindolin-2-yl) piperidine-2,6-dione]	100 to 1000	20 to 40	> 10000	< 20	500 to 1000
Cn1ccc2c(CN3CCC(C(F)(F)F)CC3)cc(-c3ccc4c(c3)CN(C3CCC(=O)NC3=O)C4=O)nc21 (stereo not shown) [Example 90, 3-(5-(1-methyl-4-((4-(trifluoromethyl)piperidin-1-yl)methyl)-1H-pyrrolo[2,3-b]pyridin-6-yl)-1-oxoisoindolin-2-yl) piperidine-2,6-dione]	1 to 10	> 80	10 to 100	20 to 40	100 to 500
Cn1ccc2c(CN3CC4(COC4)C3)cc(-c3ccc4c(c3)CN(C3CCC(=O)NC3=O)C4=O)nc21 (stereo not shown) [Example 91, 3-(5-(4-((2-oxa-6-azaspiro[3.3]heptan-6-yl)methyl)-1-methyl-1H-pyrrolo[2,3-b]pyridin-6-yl)-1-oxoisoindolin-2-yl) piperidine-2,6-dione]	1 to 10	> 80	10 to 100	20 to 40	500 to 1000
CN(C)C(=O)C1CCN(Cc2cc(-c3ccc4c(c3)CN(C3CCC(=O)NC3=O)C4=O)nc3c2ccn3C)CC1 (stereo not shown) [Example 92, 1-((6-(2-(2,6-dioxopiperidin-3-yl)-1-oxoisoindolin-5-yl)-1-methyl-1H-pyrrolo[2,3-b]pyridin-4-yl)methyl)-N,N-dimethylpiperidine-4-carboxamide]	1 to 10	> 80	> 10000	< 20	< 100
COC1CCN(Cc2cc(-c3ccc4c(c3)CN(C3CCC(=O)NC3=O)C4=O)nc3c2ccn3C)C1 (stereo not shown) [Example 93, 3-(5-(4-((3-methoxypyrrolidin-1-yl)methyl)-1-methyl-1H-pyrrolo[2,3-b]pyridin-6-yl)-1-oxoisoindolin-2-yl) piperidine-2,6-dione]	< 1	> 80	10 to 100	20 to 40	100 to 500
Cn1ccc2c(CN3CCC(n4cccn4)CC3)cc(-c3ccc4c(c3)CN(C3CCC(=O)NC3=O)C4=O)nc21 (stereo not shown) [Example 94, 3-(5-(4-((4-(1H-pyrazol-1-yl)piperidin-1-yl)methyl)-1-methyl-1H-pyrrolo[2,3-b]pyridin-6-yl)-1-oxoisoindolin-2-yl) piperidine-2,6-dione]	1 to 10	60 to 80	> 10000	< 20	< 100
Cn1ccc2c(CN3CCN4CCCC4C3)cc(-c3ccc4c(c3)CN(C3CCC(=O)NC3=O)C4=O)nc21 (stereo not shown) [Example 95, 3-(5-(4-((hexahydropyrrolo[1,2-a]pyrazin-2 (1H)-yl)methyl)-1-methyl-1H-pyrrolo[2,3-b]pyridin-6-yl)-1-oxoisoindolin-2-yl) piperidine-2,6-dione]	1 to 10	60 to 80	> 10000	< 20	100 to 500
Cn1ccc2c(CN3CCC(CO)C3)cc(-c3ccc4c(c3)CN(C3CCC(=O)NC3=O)C4=O)nc21 (stereo not shown) [Example 96, 3-(5-(4-((3-(hydroxymethyl)pyrrolidin-1-yl)methyl)-1-methyl-1H-pyrrolo[2,3-b]pyridin-6-yl)-1-oxoisoindolin-2-yl) piperidine-2,6-dione]	1 to 10	> 80	10 to 100	20 to 40	100 to 500
Cn1ccc2c(Cn3cnc4ccccc43)cc(-c3ccc4c(c3)CN(C3CCC(=O)NC3=O)C4=O)nc21 (stereo not shown) [Example 97, 3-(5-(4-((1H-benzo[d]imidazol-1-yl)methyl)-1-methyl-1H-pyrrolo[2,3-b]pyridin-6-yl)-1-oxoisoindolin-2-yl) piperidine-2,6-dione]	10 to 100	40 to 60	> 10000	< 20	< 100
CCn1ccc2c(CN3CCC3)cc(-c3ccc4c(c3)CN(C3CCC(=O)NC3=O)C4=O)nc21 (stereo not shown) [Example 98, 3-(5-(4-(azetidin-1-ylmethyl)-1-ethyl-1H-pyrrolo[2,3-b]pyridin-6-yl)-1-oxoisoindolin-2-yl) piperidine-2,6-dione]	1 to 10	> 80	> 10000	< 20	< 100
Cn1ccnc1N1CCN(Cc2cc(-c3ccc4c(c3)CN(C3CCC(=O)NC3=O)C4=O)nc3c2ccn3C)CC1 (stereo not shown) [Example 99, 3-(5-(1-methyl-4-((4-(1-methyl-1H-imidazol-2-yl)piperazin-1-yl)methyl)-1H-pyrrolo[2,3-b]pyridin-6-yl)-1-oxoisoindolin-2-yl) piperidine-2,6-dione]	10 to 100	40 to 60	> 10000	< 20	100 to 500
Cn1ccc2c(CN3CC4(CCOCC4)C3)cc(-c3ccc4c(c3)CN(C3CCC(=O)NC3=O)C4=O)nc21 (stereo not shown) [Example 100, 3-(5-(4-((7-oxa-2-azaspiro[3.5]nonan-2-yl)methyl)-1-methyl-1H-pyrrolo[2,3-b]pyridin-6-yl)-1-oxoisoindolin-2-yl) piperidine-2,6-dione]	< 1	> 80	10 to 100	20 to 40	100 to 500

From patent US20250214991A1 (Oncopia Therapeutics, Inc. d/b/a/ SK Life Science Labs, priority 2022, published 2025)
